Assay results reported in patent publication US5484786A, “Pyran-4-ylmethyl substituted arylalkylaryl-, arylalkenylylaryl-, and arylalkynylarylurea inhibitors of 5-lipoxygenase” (Abbott Laboratories, priority 1993, dated 1996).

Target: T1, 5-Lipoxygenase (Homo sapiens, UniProt P09917)
T1 construct: Human heparinized whole blood was preincubated with test compounds; from tissue; host or cells: human heparinized whole blood
T1 sequence (P09917 1-674): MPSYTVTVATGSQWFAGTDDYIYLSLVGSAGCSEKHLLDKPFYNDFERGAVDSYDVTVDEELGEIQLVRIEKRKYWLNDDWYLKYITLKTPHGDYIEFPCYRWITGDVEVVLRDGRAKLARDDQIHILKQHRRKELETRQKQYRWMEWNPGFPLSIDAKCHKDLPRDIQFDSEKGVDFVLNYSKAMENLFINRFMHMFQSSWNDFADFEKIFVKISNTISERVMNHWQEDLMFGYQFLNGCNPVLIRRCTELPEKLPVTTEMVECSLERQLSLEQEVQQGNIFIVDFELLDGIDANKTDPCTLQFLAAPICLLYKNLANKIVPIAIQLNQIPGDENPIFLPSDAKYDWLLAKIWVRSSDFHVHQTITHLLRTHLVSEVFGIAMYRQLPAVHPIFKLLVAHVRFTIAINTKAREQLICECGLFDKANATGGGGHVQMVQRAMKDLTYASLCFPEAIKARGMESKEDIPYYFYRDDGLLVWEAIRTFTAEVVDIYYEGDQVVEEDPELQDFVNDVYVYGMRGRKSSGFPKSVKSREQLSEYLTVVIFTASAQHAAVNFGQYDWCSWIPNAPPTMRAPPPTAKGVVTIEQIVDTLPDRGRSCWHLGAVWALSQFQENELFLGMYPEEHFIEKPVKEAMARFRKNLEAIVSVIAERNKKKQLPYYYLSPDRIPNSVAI
Experiment: Inhibition of calcium ionophore A23187-induced LTB4 biosynthesis in human whole blood
Type: cell-based
Details: human heparinized whole blood, 15 min preincubation 37° C., A23187 8.3 μM, 30 min
Description: Inhibition of leukotriene biosynthesis was evaluated in an assay, involving calcium ionophore-induced LTB4 biosynthesis expressed human whole blood. Human heparinized whole blood was preincubated with test compounds or vehicle for 15 min 37° C. followed by calcium ionophore A23187 challenge (final concentration of 8.3 μM) and the reaction terminated after 30 min by adding two volumes of methanol containing prostaglandin B2 as an internal recovery standard. The methanol extract was analyzed for LTB4 using a commercially available radioimmunoassay.

Question: How did the “In vitro inhibitory potency against 5-lipoxygenase from stimulated LTB4 formation in human whole blood (percent inhibition)” value (@ 3.13 μM) turn out when `CON=C(c1cc(F)cc(OCc2cccc(N(C)C(=O)N(C)C)c2)c1)C1CCOCC1` [Example 43, E- and Z-O-Methyl-4-[(3-(3-(N',N'-dimethylaminocarbonyl-N-methylamino)-benzyloxy)-5-fluoro-phenyl)oximinomethyl]tetrahydropyran] was run?
Answer: 12%

Question: For `CON=C(c1cc(F)cc(OCc2ccc(N(C)C(=O)N(C)C)cc2)c1)C1CCOCC1` [Example 5, E- and Z-O-Methyl-4-[(3-(4-N',N'-dimethylaminocarbonyl-N-methylamino)benzyloxy)-5-fluoro-phenyl)oximinomethyl]tetrahydropyran], which “In vitro inhibitory potency against 5-lipoxygenase from stimulated LTB4 formation in human whole blood (percent inhibition)” value (@ 0.78 μM) is on record?
Answer: 100%

Question: For `CON=C(c1cc(F)cc(OCc2ccc(N(C)C(C)=O)cc2)c1)C1CCOCC1` [Example 1, E- and Z-O-Methyl-4-[(3-(4-(N-acetyl-N-methylamino)benzyloxy)-5-fluoro-phenyl)oximinomethyl]tetrahydropyran], which “In vitro inhibitory potency against 5-lipoxygenase from stimulated LTB4 formation in human whole blood (percent inhibition)” value (@ 1.56 μM) is on record?
Answer: 100%
